From patent publication US10774111B2, “Opioid peptide” (Embrapa—Empresa Brasileira de Pesquisa Agropecuária, priority 2014, dated 2020)
Ends that are not written are not given here.

Legend:
Swiss mice [1] = assay: Tail Flick nociception test in mice; assay type: in vivo, Mus musculus; conditions: i.p. in mice, 240 min
Method: (§1) In vivo analyzes: Tests were carried out on Swiss mice of the Mus musculus species, in which nociception tests (Hot Plate and Tail Flick) were used according to Le Bars et al. (2001). Injections were administered via intraperitoneal (IP). Doses were based upon dose and molaridade of the morphine (10 mg/kg animal).

Swiss mice [2] = assay: Hot Plate nociception test in mice; assay type: in vivo, Mus musculus; conditions: i.p. in mice, dose based on dose and molarity of morphine 10 mg/kg (Leu-enkephalin 19.3 mg/kg), followed 120-240 min
Method: as §1
To initiate the nociceptive tests and verify the efficiency of the same, a pilot experiment was carried out using the peptide sequence SEQ ID NO: 2 and evaluating the behavior of the animals in the course of two hours.

trypsin = conditions: incubation with trypsin enzyme (enzymes present in the gastrointestinal tract), in vitro
Method: FIG. 11—Representation of the fragments obtained at the different incubation times with the enzyme trypsin. Analysis performed by mass spectrometry, MALDI. The first spectrum, marked with the letter A, refers to the time of 15 minutes; the second spectrum marked with the letter B indicates the time of 30 minutes; C indicates the time of 2 hour2; D indicates the time of 4 hours; and, finally, E is the control peptide (SEQ ID NO: 6).
FIG. 12—Representation of the fragments obtained at the different incubation times with the enzyme trypsin. Analysis performed by mass spectrometry, MALDI.
By means of this experiment it was possible to try to observe the in vitro peptide digestion by the enzyme present in the organism.

immobilized pepsin = immobilized pepsin (Homo sapiens, UniProt P0DJD8); conditions: 4 hours, 37° C., 1400 RPM
Sequence of immobilized pepsin (P0DJD8 63-388): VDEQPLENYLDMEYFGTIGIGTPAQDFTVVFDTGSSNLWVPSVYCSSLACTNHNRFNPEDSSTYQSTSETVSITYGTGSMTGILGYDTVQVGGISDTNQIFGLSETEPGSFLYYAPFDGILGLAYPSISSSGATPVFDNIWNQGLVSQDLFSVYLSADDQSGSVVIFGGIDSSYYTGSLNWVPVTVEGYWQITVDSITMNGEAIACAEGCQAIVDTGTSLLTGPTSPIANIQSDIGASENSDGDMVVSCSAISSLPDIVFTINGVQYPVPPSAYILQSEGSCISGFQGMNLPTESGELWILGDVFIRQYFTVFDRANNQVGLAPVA
Method: Digestion of the immobilized pepsin precursor: the peptide sequence SEQ ID NO: 6 was digested using immobilized pepsin for a period of 4 hours at 37° C. under agitation of 1400 RPM evaluating the fragmentation index at the times of 15 minutes, 30 minutes, 2 hours and 4 hours.
The peptide sequence SEQ ID NO: 6 was digested using immobilized pepsin for a period of 4 hours, evaluating the fragmentation index at the times of 15 minutes, 30 minutes, 2 hours and 4 hours.
Enkephalin (Leu) was digested using immobilized pepsin for a period of 4 hours, evaluating the fragmentation index at the times of 30 minutes, 1 hour, 2 hours and 4 hours.

| Compound | antinociceptive activity, latency index (Swiss mice [1]) | antinociceptive (opioid) activity, latency index (Swiss mice [2]) | intensity of the major peak during incubation (trypsin) | fragmentation index (precursor ion and lower mass ions over time) (immobilized pepsin) |
| --- | --- | --- | --- | --- |
| SEQ ID NO: 3: synthetic opioid peptide of the formula TyrGlyGly-X1-X2-X3-X4; sequence not printed in the text (YGGEGVQ) | possible to visualize the activity | possible to visualize the activity |  |  |
| SEQ ID NO: 2: synthetic opioid peptide of the formula TyrGlyGly-X1-X2-X3-X4; sequence not printed in the text (YGGTGAH) |  | delayed and prolonged activity |  |  |
| SEQ ID NO: 5: synthetic opioid peptide of the formula TyrGlyGly-X1-X2-X3-X4; sequence not printed in the text (YGGEGEQ) | antinociceptive | antinociceptive |  |  |
| YGGTAGAHGTY [SEQ ID NO: 6] |  |  | reducing | increase in the intensity of the lower mass ions over time and the decrease of the precursor ion |
| CC(C)C[C@H](NC(=O)[C@H](Cc1ccccc1)NC(=O)CNC(=O)CNC(=O)[C@@H](N)Cc1ccc(O)cc1)C(=O)O [Leu-enkephalin, reference compound] |  |  | reducing |  |
| SEQ ID NO: 4: synthetic opioid peptide of the formula TyrGlyGly-X1-X2-X3-X4; sequence not printed in the text (YGGTTGT) | antinociception activity | antinociception activity |  |  |
